From article PMC6737077, “DFMD: Fast and Effective DelPhiForce Steered Molecular Dynamics Approach to Model Ligand Approach Toward a Receptor: Application to Spermine Synthase Enzyme” (Frontiers in Molecular Biosciences, 2019)
Positions count from the first letter of the chain named.

What was measured:
Assay in all cases: intrinsic protein fluorescence titration (ex […] nm, em […]-345 nm)
Type in all cases: binding
[1] = target: T1, human spermine synthase (SpmSyn) (Homo sapiens, UniProt P52788, G56S)
T1 construct: gene SMS; wild-type human SpmSyn expression construct of Wu et al. 2008; expressed in E. coli Rosetta 2, purified; homo-dimer
T1 sequence (P52788 2-366 G56S): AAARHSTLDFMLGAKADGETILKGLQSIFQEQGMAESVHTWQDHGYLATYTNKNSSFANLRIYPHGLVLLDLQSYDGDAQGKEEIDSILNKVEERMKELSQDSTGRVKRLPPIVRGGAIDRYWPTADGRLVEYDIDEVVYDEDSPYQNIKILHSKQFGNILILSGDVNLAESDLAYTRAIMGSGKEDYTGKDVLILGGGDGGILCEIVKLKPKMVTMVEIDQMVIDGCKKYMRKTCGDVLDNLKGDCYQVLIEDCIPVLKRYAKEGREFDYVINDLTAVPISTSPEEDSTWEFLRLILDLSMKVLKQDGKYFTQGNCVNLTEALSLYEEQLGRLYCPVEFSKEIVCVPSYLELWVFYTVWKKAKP

[2] = target: T2, human spermine synthase (SpmSyn) (Homo sapiens, UniProt P52788)
T2 construct: gene SMS; wild-type human SpmSyn expression construct of Wu et al. 2008; expressed in E. coli Rosetta 2, purified; homo-dimer
T2 sequence (P52788 2-366): T1 sequence (P52788 2-366 G56S) with S55G

[3] = target: T3, human spermine synthase (SpmSyn) (Homo sapiens, UniProt P52788, D201A)
T3 construct: gene SMS; wild-type human SpmSyn expression construct of Wu et al. 2008; expressed in E. coli Rosetta 2, purified; homo-dimer
T3 sequence (P52788 2-366 D201A): T1 sequence (P52788 2-366 G56S) with S55G, D200A

- Kd [1]: 410 ± 57 µM
- Kd [2]: 272 ± 24 µM
- Kd [3]: 1020 ± 69 µM
Compound: C[S+](CC[C@H](N)C(=O)O)C[C@H]1O[C@@H](n2cnc3c(N)ncnc32)[C@H](O)[C@@H]1O (stereo partly drawn) [AdoMet]
